# Measured values as given in patent publication US20020028809A1 (SUNTORY LIMITED, priority 1999, published 2002).
# Where two headings read alike, the source gives them in different places.
# Biological target: T1, α4β2 subtype of nicotinic acetylcholine receptors (Rattus norvegicus, UniProt P09483+P12390)
# T1 construct: examined using rat brain membrane obtained from whole homogenized brain; from tissue; host or cells: whole brain of Fischer-344 male rats, membrane pellet
# Assay: Binding assays at α4β2 subtype of nicotinic acetylcholine receptors ([3H]-cytisine, rat brain membrane)
# [1] = rat brain membrane, [3H]-cytisine (2 nM), read-out: Affinities for receptors Ki α4β2
# T1 sequence (P09483 31-630): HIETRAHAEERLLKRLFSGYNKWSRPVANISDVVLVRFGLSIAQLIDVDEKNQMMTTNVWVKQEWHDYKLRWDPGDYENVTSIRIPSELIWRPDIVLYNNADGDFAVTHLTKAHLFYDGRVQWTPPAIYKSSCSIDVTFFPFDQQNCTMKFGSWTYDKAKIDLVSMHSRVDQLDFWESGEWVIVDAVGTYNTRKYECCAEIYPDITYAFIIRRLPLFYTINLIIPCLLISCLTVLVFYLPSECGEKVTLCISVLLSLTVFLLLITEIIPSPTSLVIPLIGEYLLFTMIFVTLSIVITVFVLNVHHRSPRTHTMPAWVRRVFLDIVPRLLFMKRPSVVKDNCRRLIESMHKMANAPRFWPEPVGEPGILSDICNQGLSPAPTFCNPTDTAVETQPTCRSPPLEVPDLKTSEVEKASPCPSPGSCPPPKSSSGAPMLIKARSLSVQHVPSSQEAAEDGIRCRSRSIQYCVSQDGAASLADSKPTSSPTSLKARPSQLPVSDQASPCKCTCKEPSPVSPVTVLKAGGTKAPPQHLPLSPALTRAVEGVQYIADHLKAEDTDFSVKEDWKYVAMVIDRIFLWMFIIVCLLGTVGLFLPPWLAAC
# T1 sequence (P12390 25-500): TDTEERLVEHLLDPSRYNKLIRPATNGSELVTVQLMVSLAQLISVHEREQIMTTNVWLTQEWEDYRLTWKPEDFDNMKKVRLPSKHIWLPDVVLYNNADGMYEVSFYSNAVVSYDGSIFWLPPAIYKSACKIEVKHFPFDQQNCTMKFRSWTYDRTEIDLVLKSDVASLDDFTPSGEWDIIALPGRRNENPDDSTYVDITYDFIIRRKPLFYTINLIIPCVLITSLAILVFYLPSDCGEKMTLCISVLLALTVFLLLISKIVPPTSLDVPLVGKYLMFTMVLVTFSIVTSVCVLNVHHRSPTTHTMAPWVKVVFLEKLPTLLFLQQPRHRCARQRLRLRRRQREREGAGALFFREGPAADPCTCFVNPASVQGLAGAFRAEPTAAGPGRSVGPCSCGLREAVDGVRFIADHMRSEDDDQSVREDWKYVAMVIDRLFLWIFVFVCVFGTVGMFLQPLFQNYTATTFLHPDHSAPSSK
Compound,Ki [nM],Ki [1] [nM]
"N=C1SCCN1Cc1cnc(Cl)s1 [Compound 34, 3-(2-chloro-5-thiazolyl)methyl-2-iminothiazolidine]",4.9,–
"N=C1NCCN1Cc1ccc(Cl)nc1 [Compound 13, 1-(6-Chloro-3-pyridyl)methyl-2-iminoimidazolidine]",–,4.6
"N=C1CCCN1Cc1ccc(Cl)nc1 [Compound 14, 1-(6-Chloro-3-pyridyl)methyl-2-iminopyrrolidine]",–,1.9
"N=c1sccn1Cc1ccc(F)nc1 [Compound 12, 3-(6-fluoro-3-pyridyl)methyl-2-imino-2,3-dihydrothiazole]",1.89,–
"N=C1SCCN1Cc1ccc(Cl)nc1 [Compound 5, 3-(6-chloro-3-pyridyl)methyl-2-iminothiazolidine]",–,2.2
"N=C1SCCN1Cc1ccnnc1 [Compound 33, 2-imino-3-(4-pyridazinyl)methylthiazolidine]",32,–
"Nc1nccn1Cc1cccnc1 [Compound 55, 2-amino-i-(3-pyridyl)methylimidazole]",–,43
"N=c1sccn1Cc1ccc(Br)nc1 [Compound 11, 3-(6-bromo-3-pyridyl)methyl-2-imino-2,3-dihydrothiazole]",0.63,–
"Nc1nccn1Cc1ccc(Cl)nc1 [Compound 9, 2-amino-1-(6-chloro-3-pyridyl)methylimidazole]",–,22.2
"N=c1ccc(-c2ccccc2)nn1Cc1ccc(Cl)nc1 [Compound 44, 2-(6-chloro-3-pyridyl)methyl-3-imino-6-phenyl-2,3-dihydropyridazine]",64,–
"N=c1sccn1Cc1ccc(Cl)nc1 [Compound 8, 3-(6-chloro-3-pyridyl)methyl-2-imino-2,3-dihydrothiazole]",–,0.5
"N=C1SCCN1Cc1ccc(Cl)cc1 [Compound 31, 3-(4-chlorobenzyl)-2-iminothiazolidine]",93,–
"N=c1ccccn1Cc1ccc(Cl)nc1 [Compound 7, 1-(6-chloro-3-pyridyl)methyl-2-imino-1,2-dihydropyridine]",–,3.1
